Source: patent US11203563B2, “Preparation of zinc linolenate, and application of zinc linolenate in preparing anti-helicobacter pylori drug” (NANJING MEDICAL UNIVERSITY, priority 2018, dated 2021)

Columns and labels:
Assay type in all cases: cell-based
[1] = test system: 25 kinds of non-Helicobacter pylori bacteria, including Staphylococcus aureus; assay: MIC by microdilution method, 25 kinds of non-Helicobacter pylori bacteria together; settings: all 25 kinds of non-Helicobacter pylori bacteria, 72 h
Method: (§1) 2.2 Detection of minimum inhibitory concentration (MIC, 100 µL system) of zinc linolenate for non-Helicobacter pylori bacteria by microdilution method
(§2) (1) Zinc linolenate (2 mg/mL) is prepared.
(§3) (3) Bacterial solution preparation: the non-Helicobacter pylori grown in a log phase on a solid plate is taken to make a bacterial suspension with a BHI culture medium, the absorbance (OD600) is adjusted to 0.3 (1×10^8 CFU/mL), and the bacterial suspension is diluted 100 times to 1×10^6 CFU/mL for use.
(§4) (4) Inoculation of bacterial solution: 10 μL of bacterial solution above is taken and added to the 1-8th wells (the concentration of the bacterial solution per well is about 1.0×10^5 CFU/mL). Culture is performed for 72 h to judge the result. The drug concentrations of the first-seventh wells are 128, 64, 32, 16, 8, 4, and 2 μg/mL, respectively.
(§5) The experiment only makes sense when the bacteria obviously grow in the 8th well, i.e. the positive control well (without antibiotics). When a single drift occurs in the microdilution method, the maximum drug concentration that inhibits bacterial growth should be recorded. If there are multiple drifts, the results should not be reported and the experiment should be repeated. The experiment is repeated 3 times for each drug.

Morganella morganii = assay: MIC by microdilution method, non-Helicobacter pylori bacteria; parameters: key: +: Bacterial growth; −: No bacterial growth; settings: 72 h
Method: as §1, §2, §3, §4, §5

Bacillus subtilis (168) = assay: as above; parameters: key: +: Bacterial growth; −: No bacterial growth; settings: 72 h
Method: as §1, §2, §3, §4, §5

Candida albicans = assay: as above; parameters: key: +: Bacterial growth; −: No bacterial growth; settings: 72 h
Method: as §1, §2, §3, §4, §5

[2] = test system: Enterobacter cloacae (ATCC13047); assay: as above; parameters: key: +: Bacterial growth; −: No bacterial growth; settings: 72 h
Method: as §1, §2, §3, §4, §5

[3] = test system: Proteus mirabilis (YF163006); assay: as above; parameters: key: +: Bacterial growth; −: No bacterial growth; settings: 72 h
Method: as §1, §2, §3, §4, §5

[4] = test system: Acinetobacter baumannii (ATCC19606); assay: as above; parameters: key: +: Bacterial growth; −: No bacterial growth; settings: 72 h
Method: as §1, §2, §3, §4, §5

[5] = test system: Klebsiella pneumoniae (YF173002); assay: as above; parameters: key: +: Bacterial growth; −: No bacterial growth; settings: 72 h
Method: as §1, §2, §3, §4, §5

[6] = test system: Stenotrophomonas maltophilia; assay: as above; parameters: key: +: Bacterial growth; −: No bacterial growth; settings: 72 h
Method: as §1, §2, §3, §4, §5

[7] = test system: Neisseria gonorrhoeae (ATCC19424); assay: as above; parameters: key: +: Bacterial growth; −: No bacterial growth; settings: 72 h
Method: as §1, §2, §3, §4, §5

[8] = test system: Actinobacillus actinomycetemcomitans; assay: as above; parameters: key: +: Bacterial growth; −: No bacterial growth; settings: 72 h
Method: as §1, §2, §3, §4, §5

[9] = test system: Enterococcus faecium (ATCC19434); assay: as above; parameters: key: +: Bacterial growth; −: No bacterial growth; settings: 72 h
Method: as §1, §2, §3, §4, §5

[10] = test system: Escherichia coli (MG1655); assay: as above; parameters: key: +: Bacterial growth; −: No bacterial growth; settings: 72 h
Method: as §1, §2, §3, §4, §5

[11] = test system: Haemophilus influenzae (ATCC49766); assay: as above; parameters: key: +: Bacterial growth; −: No bacterial growth; settings: 72 h
Method: as §1, §2, §3, §4, §5

[12] = test system: Staphylococcus aureus (ATCC6538); assay: as above; parameters: key: +: Bacterial growth; −: No bacterial growth; settings: 72 h
Method: as §1, §2, §3, §4, §5

SMILES: CC/C=C\C/C=C\C/C=C\CCCCCCCC(=O)[O-].CC/C=C\C/C=C\C/C=C\CCCCCCCC(=O)[O-].[Zn+2] [zinc linolenate]
- MIC [1]: greater than or equal to 128 μg/mL
- Bacterial growth (Morganella morganii; zinc linolenate 2 μg/ml): +
- Bacterial growth (Morganella morganii; zinc linolenate 4 μg/ml): +
- Bacterial growth (Morganella morganii; zinc linolenate 8 μg/ml): +
- Bacterial growth (Morganella morganii; zinc linolenate 16 μg/ml): +
- Bacterial growth (Morganella morganii; zinc linolenate 32 μg/ml): +
- Bacterial growth (Morganella morganii; zinc linolenate 64 μg/ml): +
- Bacterial growth (Morganella morganii; zinc linolenate 128 μg/ml): −
- Bacterial growth (Bacillus subtilis (168); zinc linolenate 2 μg/ml): +
- Bacterial growth (Bacillus subtilis (168); zinc linolenate 4 μg/ml): +
- Bacterial growth (Bacillus subtilis (168); zinc linolenate 8 μg/ml): +
- Bacterial growth (Bacillus subtilis (168); zinc linolenate 16 μg/ml): +
- Bacterial growth (Bacillus subtilis (168); zinc linolenate 32 μg/ml): +
- Bacterial growth (Bacillus subtilis (168); zinc linolenate 64 μg/ml): +
- Bacterial growth (Bacillus subtilis (168); zinc linolenate 128 μg/ml): +
- Bacterial growth (Candida albicans; zinc linolenate 2 μg/ml): +
- Bacterial growth (Candida albicans; zinc linolenate 4 μg/ml): +
- Bacterial growth (Candida albicans; zinc linolenate 8 μg/ml): +
- Bacterial growth (Candida albicans; zinc linolenate 16 μg/ml): +
- Bacterial growth (Candida albicans; zinc linolenate 32 μg/ml): +
- Bacterial growth (Candida albicans; zinc linolenate 64 μg/ml): +
- Bacterial growth (Candida albicans; zinc linolenate 128 μg/ml): +
- Bacterial growth ([2]; zinc linolenate 2 μg/ml): +
- Bacterial growth ([2]; zinc linolenate 4 μg/ml): +
- Bacterial growth ([2]; zinc linolenate 8 μg/ml): +
- Bacterial growth ([2]; zinc linolenate 16 μg/ml): +
- Bacterial growth ([2]; zinc linolenate 32 μg/ml): +
- Bacterial growth ([2]; zinc linolenate 64 μg/ml): +
- Bacterial growth ([2]; zinc linolenate 128 μg/ml): +
- Bacterial growth ([3]; zinc linolenate 2 μg/ml): +
- Bacterial growth ([3]; zinc linolenate 4 μg/ml): +
- Bacterial growth ([3]; zinc linolenate 8 μg/ml): +
- Bacterial growth ([3]; zinc linolenate 16 μg/ml): +
- Bacterial growth ([3]; zinc linolenate 32 μg/ml): +
- Bacterial growth ([3]; zinc linolenate 64 μg/ml): +
- Bacterial growth ([3]; zinc linolenate 128 μg/ml): +
- Bacterial growth ([4]; zinc linolenate 2 μg/ml): +
- Bacterial growth ([4]; zinc linolenate 4 μg/ml): +
- Bacterial growth ([4]; zinc linolenate 8 μg/ml): +
- Bacterial growth ([4]; zinc linolenate 16 μg/ml): +
- Bacterial growth ([4]; zinc linolenate 32 μg/ml): +
- Bacterial growth ([4]; zinc linolenate 64 μg/ml): +
- Bacterial growth ([4]; zinc linolenate 128 μg/ml): +
- Bacterial growth ([5]; zinc linolenate 2 μg/ml): +
- Bacterial growth ([5]; zinc linolenate 4 μg/ml): +
- Bacterial growth ([5]; zinc linolenate 8 μg/ml): +
- Bacterial growth ([5]; zinc linolenate 16 μg/ml): +
- Bacterial growth ([5]; zinc linolenate 32 μg/ml): +
- Bacterial growth ([5]; zinc linolenate 64 μg/ml): +
- Bacterial growth ([5]; zinc linolenate 128 μg/ml): −
- Bacterial growth ([6]; zinc linolenate 2 μg/ml): +
- Bacterial growth ([6]; zinc linolenate 4 μg/ml): +
- Bacterial growth ([6]; zinc linolenate 8 μg/ml): +
- Bacterial growth ([6]; zinc linolenate 16 μg/ml): +
- Bacterial growth ([6]; zinc linolenate 32 μg/ml): +
- Bacterial growth ([6]; zinc linolenate 64 μg/ml): +
- Bacterial growth ([6]; zinc linolenate 128 μg/ml): −
- Bacterial growth ([7]; zinc linolenate 2 μg/ml): +
- Bacterial growth ([7]; zinc linolenate 4 μg/ml): +
- Bacterial growth ([7]; zinc linolenate 8 μg/ml): +
- Bacterial growth ([7]; zinc linolenate 16 μg/ml): +
- Bacterial growth ([7]; zinc linolenate 32 μg/ml): +
- Bacterial growth ([7]; zinc linolenate 64 μg/ml): +
- Bacterial growth ([7]; zinc linolenate 128 μg/ml): +
- Bacterial growth ([8]; zinc linolenate 2 μg/ml): +
- Bacterial growth ([8]; zinc linolenate 4 μg/ml): +
- Bacterial growth ([8]; zinc linolenate 8 μg/ml): +
- Bacterial growth ([8]; zinc linolenate 16 μg/ml): +
- Bacterial growth ([8]; zinc linolenate 32 μg/ml): +
- Bacterial growth ([8]; zinc linolenate 64 μg/ml): +
- Bacterial growth ([8]; zinc linolenate 128 μg/ml): +
- Bacterial growth ([9]; zinc linolenate 2 μg/ml): +
- Bacterial growth ([9]; zinc linolenate 4 μg/ml): +
- Bacterial growth ([9]; zinc linolenate 8 μg/ml): +
- Bacterial growth ([9]; zinc linolenate 16 μg/ml): +
- Bacterial growth ([9]; zinc linolenate 32 μg/ml): +
- Bacterial growth ([9]; zinc linolenate 64 μg/ml): +
- Bacterial growth ([9]; zinc linolenate 128 μg/ml): +
- Bacterial growth ([10]; zinc linolenate 2 μg/ml): +
- Bacterial growth ([10]; zinc linolenate 4 μg/ml): +
- Bacterial growth ([10]; zinc linolenate 8 μg/ml): +
- Bacterial growth ([10]; zinc linolenate 16 μg/ml): +
- Bacterial growth ([10]; zinc linolenate 32 μg/ml): +
- Bacterial growth ([10]; zinc linolenate 64 μg/ml): +
- Bacterial growth ([10]; zinc linolenate 128 μg/ml): −
- Bacterial growth ([11]; zinc linolenate 2 μg/ml): +
- Bacterial growth ([11]; zinc linolenate 4 μg/ml): +
- Bacterial growth ([11]; zinc linolenate 8 μg/ml): +
- Bacterial growth ([11]; zinc linolenate 16 μg/ml): +
- Bacterial growth ([11]; zinc linolenate 32 μg/ml): +
- Bacterial growth ([11]; zinc linolenate 64 μg/ml): +
- Bacterial growth ([11]; zinc linolenate 128 μg/ml): +
- Bacterial growth ([12]; zinc linolenate 2 μg/ml): +
- Bacterial growth ([12]; zinc linolenate 4 μg/ml): +
- Bacterial growth ([12]; zinc linolenate 8 μg/ml): +
- Bacterial growth ([12]; zinc linolenate 16 μg/ml): +
- Bacterial growth ([12]; zinc linolenate 32 μg/ml): +
- Bacterial growth ([12]; zinc linolenate 64 μg/ml): +
- Bacterial growth ([12]; zinc linolenate 128 μg/ml): +
